Test: gradient 5% acetonitrile 3 min, to 50% in 2 min, to 85% in 15 min, held 3 min, 100 µL/min
Settings: column: Zorbax Extend-C18 2.1 x 50 mm; eluents: water / acetonitrile, 0.1% formic acid
How it was run: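 Pure standards were analyzed in mixtures of ~100 molecules using HPLC coupled to a quadrupole time-of-flight mass spectrometer, in both positive and negative ionization mode. Separation used a Zorbax Extend-C18 column (2.1 × 50 mm, 1.8 μm) at 100 μL/min, with water and acetonitrile each containing 0.1% formic acid. Dead and dwell volumes were 40 μL and 900 μL, and data were collected over 3 months. Retention time was read from computationally picked adduct peaks, each inspected manually.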

RP-LC retention time [s]	SMILES
1160	CCc1ccccc1NC(=O)N1CCc2nc(-c3ccc(Cl)cc3)ncc2C1
694	COc1ccc(CNC(=O)Nc2cc3c(cc2N2CCOCC2)n(C)c(=O)n3C)cc1
848	CCS(=O)(=O)N1CC(=O)N(c2ccc(Cl)cc2)C(C)(C(=O)NCc2ccccc2)C1 (stereo not given)
917	CC(C)C(NC(=O)NCc1ccc(F)cc1)C(=O)N1CCc2ccccc21 (stereo not given)
546	O=C(NCc1cccnc1)NC1CC(=O)N(c2ccc(Cl)cc2)C1 (stereo not given)
1050	CCn1cc(-c2nc(C)c(C(=O)Nc3ccc(OC)cc3OC)s2)c2cccnc21
779	Cc1ccc(Nc2nc(C(=O)NCc3ccco3)nc3ccccc23)cc1
1200	CCOC(=O)c1ccc2nc(C(F)(F)F)nc(N3CCc4ccccc4C3)c2c1
1080	Cc1ccc(Cl)cc1NC(=O)Cn1nc2c(Oc3ccc(C(C)C)cc3)nccn2c1=O
581	Cc1cc(=O)n(CC(=O)Nc2ccccc2F)c(N)n1
728	CCn1c(=O)c(C(=O)NCCCOC(C)C)nc2cccnc21
1040	CCCOc1cccc2c1CCN(Cc1ccc(F)cc1)C2=O
858	Cc1cc(-c2nnc(C3CCC3)o2)c(C)n1CC(=O)NCc1ccccc1F
617	O=C(NCc1cccs1)c1ccc2ncnc(N3CCCC3)c2c1
779	Cc1cc(C)nc(SCC(=O)Nc2cccc3ccccc23)n1
647	Cc1cc(=O)n(CC(=O)NCc2ccc(F)cc2)c(N2CCOCC2)n1
1000	CCc1cccc(NC(=O)Cn2nc(N3CCCC3)c3ccccc3c2=O)c1
688	Cc1cc2[nH]c(C(=O)Nc3ccc(F)c(F)c3F)c(CN(C)C)c2s1
708	CC(=O)c1cccc(NC(=O)c2c(F)cccc2F)c1

RP-LC retention time [s]	SMILES
721	COc1ccccc1CC(=O)Nc1ccc2c(c1)CCC(=O)N2C
651	Cc1cc(C)c2c(N3CCOCC3)nc(C(=O)NCc3ccc(F)cc3F)nc2n1
982	Cc1cccc(CNC(=O)CCC2CCN(S(=O)(=O)c3ccccc3C)CC2)c1
696	CN(C)c1nc2ncn3c(=O)n(CC(=O)Nc4ccc(F)c(F)c4)nc3c2s1
591	COC(=O)CNC(=O)NCCn1c(-c2ccccc2)nc2cccnc21
906	COc1ccccc1-c1noc(C2CCCN2C(=O)Nc2cc(C)ccc2C)n1 (stereo not given)
592	O=C(NCCN1CCOCC1)c1ccc(-c2c(-c3ccc(F)cc3)ncn2C2CCCC2)o1
658	CCn1cc(CN2CCC(C(=O)NCc3ccco3)CC2)c2ccccc21
957	Cc1cccc(N2CCN(C(=O)CN3CCN(Cc4ccc(F)cc4Cl)C3=O)CC2)c1
963	COc1ccc(-c2ccnc3nc(CCc4ccccc4)nn23)c(F)c1
563	OCCNCCNCc1ccc(-c2ccccc2F)o1
859	O=C(CN1C(=O)CCCc2ccccc21)NCc1ccc(F)c(Cl)c1
668	O=C(NCc1cccnc1)C1c2ccccc2C(=O)N1CCc1ccc(Cl)cc1 (stereo not given)
909	CCCOc1ccc(C(=O)Nc2nnc(C3CC(=O)N(c4ccc(Cl)cc4)C3)o2)cc1 (stereo not given)
1070	Cc1ccc(-c2ccnc3c(C(=O)NCCc4c[nH]c5ccccc45)cnn23)cc1C
878	O=c1ccn(-c2ccc(F)c(F)c2)nc1-c1nc(-c2ccccc2)no1
806	CCCn1cc(CCNC(=O)Nc2ccc(F)cc2F)c2cccnc21
1110	CCCn1cc(C2=CCN(S(=O)(=O)c3cccc(Cl)c3)CC2)c2cccnc21

More lines, now with the values behind:

SMILES	RP-LC retention time [s]
CSc1cccc(N2C=C(C#N)S(=O)(=O)c3ccc(Cl)cc32)c1	961
O=C(c1cc(F)ccc1F)N1CCN(C(=O)c2nnn3c2COC(c2ccc(Cl)cc2)C3)CC1 (stereo not given)	937
COc1ccc(C(=O)N2CCN(c3ccc(=O)n(-c4ccc(C(C)C)cc4)n3)CC2)cc1OC	867
CC(=O)N1c2ccc(S(=O)(=O)N3CCCCCC3)cc2CC1C(=O)NC(C)c1ccccc1 (stereo not given)	925
CC(C)(C)NC(=O)NC1CCN(C(=O)C2CCC2)C1 (stereo not given)	636
C=CCNC(=O)c1cnn(-c2ccc(-c3nc(C)no3)cn2)c1C	750
COCCn1c(SCc2nc(-c3ccc(OC)cc3)no2)nc2cc3c(cc2c1=O)OCO3	1020
CCNC(=O)C1CCN(S(=O)(=O)c2cc(-c3noc(CC)n3)cs2)CC1	767
NS(=O)(=O)c1ccc(Nc2ccccc2)c([N+](=O)[O-])c1	856
CN(C1CCc2nn(CC3CC3)c(=O)n2CC1)S(=O)(=O)c1ccccc1F (stereo not given)	706
CN(C)c1nc(C(=O)N2CCN(c3cccc(Cl)c3)CC2)nc2c1cnn2C	818
CCc1nncn1C1CCN(S(=O)(=O)c2cccc(F)c2)CC1	678
CCOc1ccc(-n2ccn3cc(-c4cccc(OC)c4)nc3c2=O)cc1	847
CCN(CC)C(=O)c1ccc2c(c1)N(CC(=O)NCc1ccc3c(c1)OCO3)C(=O)C1CCCCN21 (stereo not given)	826
CCSc1ccc(Cc2nnc(NC(=O)c3ccc(S(=O)(=O)N(C)C)cc3)o2)cc1	819
O=C(c1csc(S(=O)(=O)N2CCC(C(=O)N3CCc4ccccc4C3)CC2)c1)N1CCCC1	817
Cc1oc2nc3c(c(NC(=O)CN4CCCC4=O)c2c1C)CCCC3	687
Cc1cc(=O)n(CC(=O)Nc2cc(F)cc(F)c2)c(N2CCCC2)n1	670
Cc1cccc(-c2nnc(C)c(N3CCC4(CC3)OCCO4)n2)c1	673
CNCc1ccc(-c2ccccc2Cl)o1	642
CCNc1cc(N2CCC(CCC(=O)Nc3ccc(OC)cc3OC)CC2)ncn1	665
CC(C)C(=O)Nc1ccc2c(c1)nc(CN1CCCC1)n2C(C)C	602
Cc1scc2nc(C3CCC3)nc(N3CCC(C(=O)N4CCN(c5ccccc5F)CC4)CC3)c12	838
Cc1ccc(C)c(C(=O)N2C[C@H](c3nc(-c4cccnc4)no3)[C@@H](C)C2)c1	836
Cc1ccc(S(=O)(=O)N2CCN(c3cnn4c(C)nnc4c3)CC2)cc1	679
COc1cccc(-c2noc(C3CCCN3C(=O)Nc3cc(C)ccc3C)n2)c1 (stereo not given)	1020
Cc1ccccc1Nc1c(-c2cccc(Cl)c2)nc2c(C)cccn12	802

SMILES	RP-LC retention time [s]
CN1CCn2cc(S(=O)(=O)Nc3cc(F)cc(F)c3)cc2C1=O	727
CCc1ccc2[nH]c3c(c(=O)c2c1)CN(CC(=O)NCc1ccc2c(c1)OCO2)CC3	624
CCc1ccc(NC(=O)CSc2ccc(N3CCCC(C(=O)NC4CC4)C3)nn2)cc1 (stereo not given)	695
CN1CCC(OC2CCN(C(=O)c3ccc(Cl)cc3)CC2)CC1	601
O=C(c1ccccc1)N1CCC(C(=O)N2CCc3ccccc32)CC1	750
CNC(=O)c1c2c(nc3ccccc13)CCC2	542
CCOc1cc(=O)c(C(=O)N2CCC(C(N)=O)CC2)nn1-c1ccc(C)cc1	610
N#Cc1ccc(-c2csc(NC(=O)c3ccc(Cl)cc3)n2)cc1	1140
Cc1cc(C)n(CC(=O)N2CCCCCCNC(=O)[C@@H]3CCCC[C@@H]32)n1	715
Cc1cccc(C)c1NC(=O)C1CCCN(c2nnc(C)c3c(C)n(-c4ccccc4)nc23)C1 (stereo not given)	776
O=C(Nc1nc2c(s1)CN(C(=O)C1CC=CCC1)CC2)c1cccs1 (stereo not given)	770
CC(C)CCNC(=O)C1CCCN(C(=O)c2cc(-c3ccncc3)n[nH]2)C1 (stereo not given)	591
O=C(Nc1ccc(Cl)c(Cl)c1)Nc1ccc([N+](=O)[O-])cn1	1100
COC(=O)CNC(=O)N1CCC(N2C(=O)C3(CCCC3)C2c2scnc2C)CC1 (stereo not given)	653
CCc1nnc(NS(=O)(=O)c2ccc(NC(=O)c3ccc([N+](=O)[O-])s3)cc2)s1	769
O=C(Cc1ccc(Br)cc1)N1CCN(c2cc(-c3ccccc3)[nH]n2)CC1	873
N#Cc1cccc(CN2CCCC2c2nc(-c3ccccc3)n[nH]2)c1 (stereo not given)	616
COc1ccc(N2CCN(c3cc(SCC(=O)Nc4cccc(C#N)c4)ncn3)CC2)cc1	895
Cc1noc(-c2ccc(NC(=O)CSc3nnnn3C)cc2)n1	665
Cc1noc(/C=C\c2ccc(S(=O)(=O)N3CCN(C)CC3)cc2)c1NC(=O)C1CC1	617
Cc1ccccc1Nc1c(-c2ccc(Cl)cc2)nc2cnccn12	1030
COc1ccc(C)cc1NC(=O)N1CCCC1c1cc(C(C)C)on1 (stereo not given)	1050
CS(=O)(=O)N1CCOc2ccc(CCC(N)=O)cc2C1	628
Cc1cc(C)n(CCC(=O)N2CCC(n3c(C)cnc3C)C2)n1 (stereo not given)	563
O=C(c1ccc(F)cc1)N1CCN(S(=O)(=O)c2cc3c4c(c2)CCC(=O)N4CCC3)CC1	808
COc1ccc(-c2nn3c(-c4ccc5ccccc5n4)nnc3s2)cc1OC	886

From the METLIN SMRT retention time set (Domingo-Almenara et al. 2019)
